Experimental data reported in patent US20100168099A1, “1H-QUINOLIN-4-ONE COMPOUNDS, WITH AFFINITY FOR THE GABA RECEPTOR, PROCESSES, USES AND COMPOSITIONS” (FERRER INTERNACIONAL, S.A., priority 2006, published 2010).

Key:
α2-GABAA receptor = assay: Ligand-binding assay, radiolabeled flumazenil competition, spinal cord membranes; set-up: species or system rat; conditions: for Affinity for the α2-subunit of the GABAA receptor, % inhibition: rat spinal cord membranes, radiolabeled flumazenil 1 nM; for affinity for the α2-subunit of GABAA receptor (in words): compared with zolpidem where stated
Protocol: (§1) a) Ligand-binding Assays. Determination of the Affinity of Test Compounds for α1- and α2-GABAA, Receptor
(§2) Male Sprague-Dawley rats weighing 200-250 g at the time of experiment were used. After decapitation of the animal, the cerebellum (tissue that mostly contains α1-GABAA receptor) and spinal cord (tissue that mostly contains α2-GABAA receptor) were removed. The membranes were prepared according to the method by J. Lameh et al. (Prog. Neuro-Psychopharmacol. Biol. Psychiatry, 24, 979-991, 2000) and H. Noguchi et al. (Eur J Pharm, 434, 21-28, 2002) with slight modifications. Once the tissues weighed, they were suspended in 50 mM Tris.HCl (pH 7.4), 1:40 (v/v), or sucrose 0.32 M in the case of spinal cord, homogenized and then centrifuged at 20,000 g for 10 min at 7° C. The resulting pellet was resuspended under the same conditions and centrifuged again. The pellet was finally resuspended on a minimum volume and kept at −80° C. overnight. On the next day, the process was repeated until the final pellet was resuspended at a ratio of 1:10 (v/v) in the case of cerebellum and at a ratio of 1:5 (v/v) in the case of spinal cord.
(§3) Affinity was determined by competitive tests using radiolabeled flumazenil as ligand. The tests were performed according to the methods described by S. Arbilla et al. (Eur. J. Pharmacol., 130, 257-263, 1986); and Y. Wu et al. (Eur. J. Pharmacol., 278, 125-132, 1995) using 96-well microtiter plates. The membranes containing the study receptors, flumazenil (radiolabeling at a final concentration of 1 nM) and ascending concentrations of test compounds (in a total volume of 230 μL in 50 mM [pH 7.4] Tris.HCl buffer) were incubated. Simultaneously, the membranes were only incubated with the radiolabeled flumazenil (total binding, 100%) and in the presence of an elevated concentration of unradiolabeled flumazenil (non-specific binding, % estimation of radiolabeled ligand). The reactions started on adding the radiolabeled ligand followed by incubation for 60 minutes at 4° C. At the end of the incubation period, 200 μL of reaction were transferred to a multiscreen plate (Millipore) and filtered using a vacuum manifold and then washed three times with cold test buffer. The multiscreen plates were equipped with a GF/B filter that retained the membranes containing the receptors and the radiolabeled ligand which had been bound to the receptors. After washing, the plates were left till dry. Once dried, scintillation liquid was added and left under stirring overnight. The next day the plates were counted using a Perkin-Elmer Microbeta scintillation counter.
(§4) For analysis of the results the percentage of specific binding for every concentration of test compound was calculated as follows:
(§5) % specific binding=(X−N/T−N)×100
(§6) where, X: amount of bound ligand for every concentration of compound. T: total binding, maximum amount bound to the radiolabeled ligand. N: non-specific binding, amount of radiolabeled ligand bound in a non-specific way irrespective of the receptor used.
(§7) Every concentrations of compound were tested in triplicate and their mean values were used to determine the experimental values of % specific binding versus the concentration of compound. Affinity data are expressed as % inhibition at 10^−5M and 10^−7M concentrations.

[1] = tested on: spontaneous motor activity of male CD1 mice; assay: In vivo predictive sedation-hypnosis test (traveled distance); conditions: Mus musculus, ip, 0.5 h, 98 μmol/kg, single intraperitoneal dose, 30 minutes after dosing (first 5 min discarded), versus control
Protocol: b) In Vivo Determination of Predictive Sedative-Hypnotic Action
The in vivo effects of these compounds were assessed by a predictive sedation-hypnosis test in mice (D. J. Sanger et al., Eur. J. Pharmacol., 313, 35-42, 1996; and G. Griebel et al., Psychopharmacology, 146, 205-213, 1999).
Groups of 5-8 male CD1 mice, weighing 22-26 g at the time of test, were used. The test compounds were administered in single equimolecular intraperitoneal doses, suspended in 0.25% agar with one drop of Tween in a volume of 10 mL/kg. Control animals received the vehicle alone. Using a Smart System (Panlab, S. L., Spain) the traveled distance in cm was recorded for each mouse at 5 min intervals during a period of 30 minutes after dosing. The inhibition percentage traveled distance of treated animals versus control animals (the first 5 min were discarded) was calculated.

α1-GABAA receptor = assay: Ligand-binding assay, radiolabeled flumazenil competition, cerebellum membranes; set-up: species or system rat; conditions: for Affinity for the α1-subunit of the GABAA receptor, % inhibition: rat cerebellum membranes, radiolabeled flumazenil 1 nM; for affinity for α1-subunit of GABAA receptor (in words): compared with zolpidem where stated; for α1-/α2-selectivity (in words): compared with zolpidem
Protocol: as §1, §2, §3, §4, §5, §6, §7

Row | Compound | Affinity for the α2-subunit of the GABAA receptor, % inhibition (α2-GABAA receptor; 10^−5M) | Affinity for the α2-subunit of the GABAA receptor, % inhibition (α2-GABAA receptor; 10^−7M) | inhibition in vivo at 98 µmol/kg [1] | Affinity for the α1-subunit of the GABAA receptor, % inhibition (α1-GABAA receptor; 10^−5M) | Affinity for the α1-subunit of the GABAA receptor, % inhibition (α1-GABAA receptor; 10^−7M) | affinity for α1-subunit of GABAA receptor (in words) (α1-GABAA receptor) | affinity for the α2-subunit of GABAA receptor (in words) (α2-GABAA receptor) | α1-/α2-selectivity (in words) (α1-GABAA receptor)
1 | COc1ccc(NC(=O)Cn2cc(-c3ccc(OC)cc3)c(=O)c3ccc(C)cc32)cc1 [Example 80, N-(4-Methoxy-phenyl)-2-[3-(4-methoxy-phenyl)-7-methyl-4-oxo-4H-quinolin-1-yl]acetamide] | 65.1% | 15.7% | 71.9% | 78.5% | 28.5% |  |  | 
2 | CCCN(CCC)C(=O)Cn1cc(-c2ccc(OC)cc2)c(=O)c2ccc(C)cc21 [Example 36, 2-[3-(4-Methoxy-phenyl)-7-methyl-4-oxo-4H-quinolin-1-yl]-N,N-dipropyl-acetamide] |  |  | 92.1% | 95.9% | 20.3% |  |  | 
3 | CCCN(CCC)C(=O)Cn1cc(-c2ccccc2)c(=O)c2ccc(Br)cc21 [Example 44, 2-(7-Bromo-4-oxo-3-phenyl-4H-quinolin-1-yl)-N,N-dipropyl-acetamide] |  |  | 95.2% | 99.8% | 61.9% | higher affinity |  | 
4 | Cc1ccc2c(=O)c(-c3ccccc3)cn(CC(=O)c3cccs3)c2c1 [Example 27, 7-Methyl-1-(2-oxo-2-thiophen-2-yl-ethyl)-3-phenyl-1H-quinolin-4-one] | 89.9% | 8.4% | 70% | 97.7% | 14.0% |  | higher affinity than prior art compound zolpidem | 
5 | C=CCN(CC=C)C(=O)Cn1cc(-c2ccccc2)c(=O)c2ccc(C)cc21 [Example 43, N,N-Diallyl-2-(7-methyl-4-oxo-3-phenyl-4H-quinolin-1-yl)-acetamide] | 88.2% | 12.5% | 91% | 99.0% | 49.9% |  | higher affinity than prior art compound zolpidem | 
6 | Cc1ccc2c(=O)c(-c3ccccc3)cn(CC(=O)c3oc(C)nc3C)c2c1 [Example 33, 1-[2-(2,4-Dimethyl-oxazol-5-yl)-2-oxo-ethyl]-7-methyl-3-phenyl-1H-quinolin-4-one] |  |  | 91.7% | 97.0% | 33.9% |  |  | 
7 | C=CCN(CC=C)C(=O)Cn1cc(-c2ccccc2)c(=O)c2ccc(Br)cc21 [Example 129, N,N-Diallyl-2-(7-bromo-4-oxo-3-phenyl-4H-quinolin-1-yl)-acetamide] |  |  | 93.5% | 99.7% | 85.2% | higher affinity |  | 
8 | CCCN(CCC)C(=O)Cn1cc(-c2ccccc2)c(=O)c2ccccc21 [Example 47, 2-(4-Oxo-3-phenyl-4H-quinolin-1-yl)-N,N-dipropyl-acetamide] | 68.9% | 0.0% | 74.7% | 88.1% | 2.3% |  |  | 
9 | CCCN(CC1CC1)C(=O)Cn1cc(-c2ccccc2)c(=O)c2ccc(C)cc21 [Example 39, N-Cyclopropylmethyl-2-(7-methyl-4-oxo-3-phenyl-4H-quinolin-1-yl)-N-propyl-acetamide] | 93.4% | 28.5% | 92.5% | 98.8% | 56.3% | higher affinity |  | 
10 | CCCN(CCC)C(=O)Cn1cc(-c2ccccc2)c(=O)c2ccc(C)cc21 [Example 14, 2-(7-Methyl-4-oxo-3-phenyl-4H-quinolin-1-yl)-N,N-dipropyl-acetamide] | 77.3% | 40.6% | 96.2% | 98.4% | 36.7% | higher affinity |  | 
11 | Cc1cccc2c1c(=O)cc(-c1ccccc1)n2CC(=O)N1CCOCC1 [Example 1, 5-Methyl-1-(2-morpholin-4-yl-2-oxo-ethyl)-2-phenyl-1H-quinolin-4-one] |  |  |  | 99.5% | 57.9% | higher affinity |  | 
12 | Cc1cccc2c1c(=O)cc(-c1ccccc1)n2CC(=O)N1CCCC1 [Example 11, 5-Methyl-1-(2-oxo-2-pyrrolidin-1-yl-ethyl)-2-phenyl-1H-quinolin-4-one] |  |  |  | 99.9% | 52.6% | higher affinity |  | 
13 | Cc1ccc2c(=O)c(-c3ccccc3)cn(CC(=O)N3CC(C)OC(C)C3)c2c1 (stereo not shown) [Example 32, 1-[2-(2,6-Dimethyl-morpholin-4-yl)-2-oxo-ethyl]-7-methyl-3-phenyl-1H-quinolin-4-one] | 55.4% | 0.0% | 90% | 86.2% | 18.4% |  |  | higher α1-/α2-selectivity than the most selective therapeutically used compound zolpidem
14 | C=CCN(CC=C)C(=O)Cn1cc(-c2ccc(OC)cc2)c(=O)c2ccc(C)cc21 [Example 97, N,N-Diallyl-2-[3-(4-methoxy-phenyl)-7-methyl-4-oxo-4H-quinolin-1-yl]-acetamide] | 62.0% | 0.0% | 76.8% | 90.7% | 4.9% |  |  | 
15 | Cc1ccc(-c2nc3ccc(C)cn3c2CC(=O)N(C)C)cc1 [zolpidem, reference compound] | 74.1% | 19.9% | 91.7% | 99.8% | 51.9% |  |  | 
16 | Cc1ccc2c(=O)c(-c3ccccc3)cn(CC(=O)N3CCCC3)c2c1 [Example 18, 7-Methyl-1-(2-oxo-2-pyrrolidin-1-yl-ethyl)-3-phenyl-1H-quinolin-4-one] | 66.3% | 0.0% | 84.5% | 86.2% | 7.5% |  |  | higher α1-/α2-selectivity than the most selective therapeutically used compound zolpidem
